The nature of data set [1]: Tap density of milled dextromethorphan tannate powders. In kind it is physicochemical. The settings on record: dried to moisture level (K.F.) of 5%, milled to particle size of about 100 mesh.
The conditions of data set [2]: background statement on known substance, cited from earlier work.
The nature of data set [3]: Solubility in water (descriptive). The following applies: physical properties stated in detailed description.

Counter-ions that a name gives are not always drawn. Like-named read-outs stand apart in the source and are kept apart here.

Data on six compounds can be found in US6670370B1 (priority 2001, dated 2003).

Regarding “dextromethorphan tannate [D-M Tannate of the invention]”, the “Tap Density” value in data set [1] turned out to be 0.723 g/cc.

In the case of “dextromethorphan tannate [Commercially available D-M Tannate]”, the “Tap Density” value in data set [1] is listed as 0.313 g/cc. Consider `COc1ccc2c(c1)[C@]13CCCC[C@@H]1[C@H](C2)N(C)CC3` [dextromethorphan free base, 3-methoxy-17-methyl-9α, 13α, 14α-morphinan], for which the solubility in water result in data set [2] and in data set [3] was “insoluble” throughout. For `COc1ccc2c(c1)[C@]13CCCC[C@@H]1[C@H](C2)N(C)CC3` [hydrobromide monohydrate salt, dextromethorphan hydrobromide monohydrate], the solubility in water entry in data set [2] (hydrobromide monohydrate) is “soluble”. As for `O=C(OC[C@H]1O[C@@H](OC(=O)c2cc(O)c(O)c(OC(=O)c3cc(O)c(O)c(O)c3)c2)[C@H](OC(=O)c2cc(O)c(O)c(OC(=O)c3cc(O)c(O)c(O)c3)c2)[C@@H](OC(=O)c2cc(O)c(O)c(OC(=O)c3cc(O)c(O)c(O)c3)c2)[C@@H]1OC(=O)c1cc(O)c(O)c(OC(=O)c2cc(O)c(O)c(O)c2)c1)c1cc(O)c(O)c(OC(=O)c2cc(O)c(O)c(O)c2)c1` [tannic acid], the solubility in water entry in data set [2] is “highly soluble”. With “dextromethorphan tannate [D-M Tannate synthesized by IPA route (Example 5)]”, the “Tap Density” value in data set [1] stood at 0.321 g/cc.
